# Measurements reported in ChEMBL document CHEMBL1126383, “P-3A and ()-desacetamido P-3A: demonstration and Study of their effective functional cleavage of duplex DNA” (Bioorg Med Chem Lett, 1992).
# Calls of active or inactive are those of the source. No cut-off for these calls is given here.
# Key:
# Format in all cases: functional
# [1] = system: Nucleic Acid; experiment: Relative efficiency of supercoiled phi X174 DNA cleavage was determined; 1.25-2
# [2] = system: Nucleic Acid; experiment: Relative efficiency of supercoiled phi X174 DNA cleavage was determined; 0.33-0.2
# [3] = system: Nucleic Acid; experiment: DNA cleavage selectivity selected within singly 5' -end labeled w794 DNA was determined; N - None
# [4] = system: Nucleic Acid; experiment: Relative efficiency of supercoiled phi X174 DNA cleavage was determined
# [5] = system: Nucleic Acid; experiment: Relative efficiency of supercoiled phi X174 DNA cleavage was determined; 4-10
smiles,measurement,setting,value
Cc1c(N)nc(C(CC(N)=O)NC[C@H](N)C(N)=O)nc1C(=O)NC(C(=O)NC(C)C(O)[C@H](C)C(=O)NC(C(=O)NCCc1nc(-c2nc(C(=O)NCCC[S+](C)C)cs2)cs1)C(C)O)C(O)c1c[nH]cn1 (stereo partly specified),Relative efficiency,[1],1.25
C[C@H](NC(=O)C(Cc1c[nH]cn1)NC(=O)c1cc(N)nc(CNC[C@H](N)C(N)=O)n1)C(=O)O (stereo partly specified),Relative efficiency,[2],0.2
same,Selectivity,[3],inactive
C[C@H](NC(=O)C(Cc1c[nH]cn1)NC(=O)c1cc(N)nc(C(CC(N)=O)NC[C@H](N)C(N)=O)n1)C(=O)O (stereo partly specified),Relative efficiency,[4],1
same,Selectivity,[3],inactive
Cc1c(N)nc([C@H](CC(N)=O)NC[C@H](N)C(N)=O)nc1C(=O)N[C@H](C(=O)N[C@H](C)[C@@H](O)[C@H](C)C(=O)N[C@H](C(=O)NCCc1nc(-c2nc(C(=O)NCCC[S+](C)C)cs2)cs1)[C@@H](C)O)[C@@H](O[C@@H]1O[C@@H](CO)[C@@H](O)[C@H](O)[C@@H]1O[C@H]1O[C@H](CO)[C@@H](O)[C@H](OC(N)=O)[C@@H]1O)c1c[nH]cn1,Relative efficiency,[5],4
